Literature values, collected in patent US20140170075A1, “NON-INVASIVE IMAGING METHODS FOR PATIENT SELECTION FOR TREATMENT WITH NANOPARTICULATE THERAPEUTIC AGENTS” (Merrirnack Pharmaceuticals, Inc., priority 2012, published 2014).

System: cancer cell proliferation
Details: more active than irinotecan

For `CCc1c2c(nc3ccc(O)cc13)-c1cc3c(c(=O)n1C2)COC(=O)[C@]3(O)CC` [SN-38], the “activity as an inhibitor of cancer cell proliferation relative to irinotecan” value is listed as 100-1000 ×.
